Measurements as given in patent US20240284907A1, “NOVEL DERIVATIVES OF NON-CODED AMINO ACIDS AND THEIR USE AS HERBICIDES” (FortePhest LTD., priority 2021, published 2024).

What was measured:
[1] = tested on: Romaine lettuce (Lactuca sativa L.) plants; assay: Post-emergence herbicidal activity on potted Romaine lettuce plants (soil or foliar application); type: in vivo; conditions: lettuce at 2 to 3 leaves, two weeks after treatment
Method: The tests were performed on Romaine lettuce (Lactuca sativa L.) plants at the stage 2 to 3 leaves. The plants were grown in mini-pots packed with soil, dimensions 2×2×5 cm, one plant per mini-pot. Test compounds were dissolved in 0.1% aqueous solution water solution of Silwet adjuvant to final concentrations ranging from 0 (Control) to 0.0001%. The test compounds were applied on soil (1 ml per pot) or foliar with airbrush (0.1 ml per pot). Each concentration was tested on 20 plants. Two weeks after the treatment the herbicidal effects of the respective test material were visually evaluated (aboveground part and roots. Then the aboveground part of the plants was neatly cut and weighed (wet weight) to assess the growth inhibition caused by the test compound. The growth inhibition (GI) was calculated as following: […]
Where Mt and Mc are median wet weight of treated and control plants, respectively. In the context of the invention, the herbicidal effect was assessed by concentration of the compound causing more than 85% of Growth Inhibition (GI) or irreversible damage of the plants (Table 3). Herbicidal activity of selected DHAAs is summarized in Table 4 (soil application) and Table 5 (Foliar application).

[2] = tested on: Seeds of Lettuce R. (Super-Jericho); assay: Filter paper bioassay with lettuce seeds: germination and early plant development, Minimal Effective Concentration (MEC); type: in vivo; conditions: lettuce seeds on filter paper, 0 to 1 mmol/l, visually assessed after 6 days
Summary of the method: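 Non-sterilized Super-Jericho lettuce seeds, 10 per dish, on filter paper wetted with aqueous test solution at 0–1 mmol/l. Kept 48 h dark, then 4 days at 6/18 dark/light. MEC is the lowest concentration causing no germination or radicle/shoot malformation by visual scoring at day 6; at least two repeats.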

| Compound | Score (test material causing more than 85% of Growth Inhibition or irreversible plant damage) ([1]; soil application) | Score (activity score of Minimal Effective Concentration, MEC) [2] | Score (test material causing more than 85% of Growth Inhibition or irreversible plant damage) ([1]; foliar application) |
| --- | --- | --- | --- |
| 2-(2-chloro-1,3-thiazol-4-yl)-2,2-difluoroethan-1-ol [compound 5724] | strong (0.01 to 0.05) | Moderate (0.1 mM) |  |
| 2-(5-chlorothiophen-3-yl)-2,2-difluoroacetic acid [compound 5625] | strong (0.01 to 0.05) | Strong (0.01 mM) | strong (0.01 to 0.05) |
| O=C(O)Cc1cc(Br)nc(Br)c1 [compound 689, 2-(2,6-dibromopyridin-4-yl)acetic acid] | moderate (0.5) | Moderate (0.1 mM) |  |
| NC(=O)CCCc1cc(Cl)sc1Cl [compound 5600, 4-(2,5-dichlorothiophen-3-yl)butanamide] | moderate (0.5) | Weak (Higher than 0.1 mM) |  |
| CC(=O)NCCc1cc(Cl)sc1Cl [compound 5629, N-[2-(2,5-dichlorothiophen-3-yl)ethyl]acetamide] | moderate (0.5) |  |  |
| CC(=O)NCCc1nc(Cl)sc1Cl [compound 5650, N-[2-(2,5-dichloro-1,3-thiazol-4-yl)ethyl]acetamide] | moderate (0.5) |  |  |
| COC(=O)C(Cl)c1cc(Cl)sc1Cl (stereo not shown) [compound 5656, methyl 2-chloro-2-(2,5-dichlorothiophen-3-yl)acetate] | moderate (0.5) |  |  |
| CCOC(=O)Cc1nc(Br)sc1C [compound 5661, ethyl 2-(2-bromo-5-methyl-1,3-thiazol-4-yl)acetate] | moderate (0.5) | Moderate (0.1 mM) | moderate (0.5) |
| O=C(Cc1cc(Cl)sc1Cl)OCc1ccccc1 [compound 5669, benzyl 2-(2,5-dichlorothiophen-3-yl)acetate] | strong (0.01 to 0.05) |  | strong (0.01 to 0.05) |
| CONCCc1cc(Cl)sc1Cl [compound 5670, 2-(2,5-dichlorothiophen-3-yl)-N-methoxyethan-1-amine] | moderate (0.5) | Moderate (0.1 mM) |  |
| CCOC(=O)C(F)(F)c1csc(C(F)(F)F)n1 [compound 5781] |  | Strong (0.01 mM) | strong (0.01 to 0.05) |
| O=C(O)/C(F)=C(\F)c1ccc(Br)nc1 [compound 6638, (2E)-3-(6-bromopyridin-3-yl)-2,3-difluoroprop-2-enoic acid] | moderate (0.5) | Moderate (0.1 mM) |  |
| methyl 2-(2-bromopyridin-4-yl)-2,2-difluoroacetate [compound 6629] |  | Moderate (0.1 mM) |  |
| naphthalene-2-carboxylic acid [compound 691] |  | Weak (Higher than 0.1 mM) |  |
| propyl[2-(1H-1,2,4-triazol-3-yl)ethyl]amine [compound 5660] |  | Weak (Higher than 0.1 mM) |  |
| sodium 2-(2-chloro-1,3-thiazol-5-yl)-2,2-difluoroacetate [compound 5721] |  | Moderate (0.1 mM) |  |
| {2-[(6-amino-9H-purin-9-yl)methoxy]ethoxy}methyl(2-chloro-1,3-thiazol-4-yl)acetate [compound 5752] |  | Moderate (0.1 mM) |  |
